Consider two molecules from article PMC9692725, “Glutathione S-Transferase May Contribute to the Detoxification of (S)-(−)-Palasonin in Plutella xylostella (L.) via Direct Metabolism” (Insects, 2022).

In experiment [1] the target is T1, GSTs2 (Plutella xylostella, UniProt Q6F436).
T1 construct: recombinant, pET-30a(+), E. coli BL21(DE3), Ni-NTA purified, about 25 kDa expected
Briefly: inhibition of CDNB-GSH conjugation, absorbance at […] nm. The class given is biochemical. The settings on record: CDNB and GSH substrates, PBS, 10 min preincubation at 25 °C; competitive (authors' inference).

Experiment [2] concerns the target T2, GSTd1 (Plutella xylostella, UniProt A0A8S4F7H5).
T2 construct: gene PLXY2_LOCUS7699; recombinant, pET-30a(+), E. coli BL21(DE3), Ni-NTA purified, about 25 kDa expected
T2 sequence (A0A8S4F7H5 1-243 limits assumed): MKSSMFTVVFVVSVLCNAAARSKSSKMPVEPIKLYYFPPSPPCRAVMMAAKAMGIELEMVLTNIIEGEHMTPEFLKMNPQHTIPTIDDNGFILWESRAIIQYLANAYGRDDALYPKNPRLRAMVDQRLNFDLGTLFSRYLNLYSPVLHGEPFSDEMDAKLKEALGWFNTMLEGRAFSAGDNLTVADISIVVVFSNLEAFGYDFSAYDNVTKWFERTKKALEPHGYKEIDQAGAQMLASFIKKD
Described as above. The class given is biochemical. The settings on record: CDNB and GSH substrates, PBS, 10 min preincubation at 25 °C; competitive (authors' inference).

Experiment [3] concerns the target T3, GSTs1 (Plutella xylostella, UniProt Q6F443).
T3 construct: recombinant, pET-30a(+), E. coli BL21(DE3), Ni-NTA purified, about 25 kDa expected
T3 sequence (Q6F443 1-204): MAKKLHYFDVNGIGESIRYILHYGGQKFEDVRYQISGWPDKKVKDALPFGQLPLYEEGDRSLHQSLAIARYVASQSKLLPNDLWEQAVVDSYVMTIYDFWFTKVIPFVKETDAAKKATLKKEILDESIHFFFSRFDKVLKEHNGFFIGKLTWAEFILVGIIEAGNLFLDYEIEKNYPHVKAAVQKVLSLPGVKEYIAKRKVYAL
The experiment is described as above. In kind it is biochemical. The following applies: CDNB and GSH substrates, PBS, 10 min preincubation at 25 °C; competitive (authors' inference).

In experiment [4] the target is T4, GSTd2 (Plutella xylostella, UniProt X5CJR6).
T4 construct: recombinant, pET-30a(+), E. coli BL21(DE3), Ni-NTA purified, about 25 kDa expected
T4 sequence (X5CJR6 1-247): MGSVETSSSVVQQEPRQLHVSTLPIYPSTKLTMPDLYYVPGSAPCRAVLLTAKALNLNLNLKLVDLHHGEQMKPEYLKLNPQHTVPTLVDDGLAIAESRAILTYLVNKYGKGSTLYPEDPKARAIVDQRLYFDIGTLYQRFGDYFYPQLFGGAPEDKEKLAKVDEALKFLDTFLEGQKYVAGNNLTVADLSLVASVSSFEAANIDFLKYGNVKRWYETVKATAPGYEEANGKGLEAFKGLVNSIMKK
The description is as above. The following applies: CDNB and GSH substrates, PBS, 10 min preincubation at 25 °C; competitive (authors' inference). The class given is biochemical.

Experiment [5] has as its target T1, GSTs2. Briefly: CDNB-GSH conjugation, absorbance at […] nm. The class given is biochemical. The settings on record: 1 mM GSH, 100 mM phosphate buffer, CDNB 0.05-1.6 mM.
The target in another experiment is T5, GSTd3 (Plutella xylostella, UniProt D7URW9).
T5 construct: gene PxGSTd; recombinant, pET-30a(+), E. coli BL21(DE3), Ni-NTA purified, about 25 kDa expected
T5 sequence (D7URW9 1-215): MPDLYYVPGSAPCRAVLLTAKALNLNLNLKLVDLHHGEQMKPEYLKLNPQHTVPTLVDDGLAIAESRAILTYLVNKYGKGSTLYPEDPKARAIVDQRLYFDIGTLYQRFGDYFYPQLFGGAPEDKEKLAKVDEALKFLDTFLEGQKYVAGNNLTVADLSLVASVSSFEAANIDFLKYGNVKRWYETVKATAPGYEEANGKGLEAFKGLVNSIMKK
Nature of the experiment: CDNB-GSH conjugation, absorbance at […] nm. The class given is biochemical. The following applies: 1 mM GSH, 100 mM phosphate buffer, CDNB 0.05-1.6 mM.

Experiment [6] addresses T3, GSTs1. Nature of the experiment: CDNB-GSH conjugation, absorbance at […] nm. The class given is biochemical. The settings on record: 1 mM GSH, 100 mM phosphate buffer, CDNB 0.05-1.6 mM.
For a further experiment, the system named is T6, GSTd5.
T6 construct: recombinant, pET-30a(+), E. coli BL21(DE3), Ni-NTA purified, about 25 kDa expected
Briefly: CDNB-GSH conjugation, absorbance at […] nm. The class given is biochemical, Plutella xylostella. The settings on record: 1 mM GSH, 100 mM phosphate buffer, CDNB 0.05-1.6 mM.

The target in a further experiment is T7, GSTd4 (Plutella xylostella, UniProt X5CCB0).
T7 construct: recombinant, pET-30a(+), E. coli BL21(DE3), Ni-NTA purified, about 25 kDa expected
T7 sequence (X5CCB0 1-219): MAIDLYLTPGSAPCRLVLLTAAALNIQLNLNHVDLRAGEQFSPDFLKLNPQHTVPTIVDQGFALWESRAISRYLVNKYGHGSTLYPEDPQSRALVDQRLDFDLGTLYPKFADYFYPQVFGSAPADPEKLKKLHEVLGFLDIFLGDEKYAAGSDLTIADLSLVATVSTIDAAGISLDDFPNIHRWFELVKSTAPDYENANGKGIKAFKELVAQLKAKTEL
Briefly: CDNB-GSH conjugation, absorbance at […] nm. The class given is biochemical. The settings on record: 1 mM GSH, 100 mM phosphate buffer, CDNB 0.05-1.6 mM.

The target in experiment [7] is T2, GSTd1. Nature of the experiment: CDNB-GSH conjugation, absorbance at […] nm. In kind it is biochemical. The settings on record: 1 mM GSH, 100 mM phosphate buffer, CDNB 0.05-1.6 mM.
The target of a further experiment is T8, GSTe4 (Plutella xylostella, UniProt X5D048).
T8 construct: recombinant, pET-30a(+), E. coli BL21(DE3), Ni-NTA purified, about 25 kDa expected
T8 sequence (X5D048 1-220): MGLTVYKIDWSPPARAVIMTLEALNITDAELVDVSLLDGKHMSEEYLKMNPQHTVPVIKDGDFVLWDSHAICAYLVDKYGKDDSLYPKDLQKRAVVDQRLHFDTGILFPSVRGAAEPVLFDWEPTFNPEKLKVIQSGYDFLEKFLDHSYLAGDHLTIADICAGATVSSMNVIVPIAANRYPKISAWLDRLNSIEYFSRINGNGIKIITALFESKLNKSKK
Briefly: CDNB-GSH conjugation, absorbance at […] nm. The class given is biochemical. The settings on record: 1 mM GSH, 100 mM phosphate buffer, CDNB 0.05-1.6 mM.

The target in experiment [8] is T4, GSTd2. Briefly: CDNB-GSH conjugation, absorbance at […] nm. The class given is biochemical. The settings on record: 1 mM GSH, 100 mM phosphate buffer, CDNB 0.05-1.6 mM.
Another experiment has as its target T9, GSTe5 (Plutella xylostella, UniProt X5CJR9).
T9 construct: recombinant, pET-30a(+), E. coli BL21(DE3), Ni-NTA purified, about 25 kDa expected
T9 sequence (X5CJR9 1-232): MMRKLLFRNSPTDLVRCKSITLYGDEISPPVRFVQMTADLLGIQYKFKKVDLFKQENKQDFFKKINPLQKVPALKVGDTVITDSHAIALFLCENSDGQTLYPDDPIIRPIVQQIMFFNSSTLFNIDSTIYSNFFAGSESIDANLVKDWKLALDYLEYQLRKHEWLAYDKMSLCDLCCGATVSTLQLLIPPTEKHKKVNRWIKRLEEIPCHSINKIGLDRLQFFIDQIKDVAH
Briefly: CDNB-GSH conjugation, absorbance at […] nm. The following applies: 1 mM GSH, 100 mM phosphate buffer, CDNB 0.05-1.6 mM. The class given is biochemical.

Each structure is given as a SMILES string.

T1 sequence (Q6F436 1-204): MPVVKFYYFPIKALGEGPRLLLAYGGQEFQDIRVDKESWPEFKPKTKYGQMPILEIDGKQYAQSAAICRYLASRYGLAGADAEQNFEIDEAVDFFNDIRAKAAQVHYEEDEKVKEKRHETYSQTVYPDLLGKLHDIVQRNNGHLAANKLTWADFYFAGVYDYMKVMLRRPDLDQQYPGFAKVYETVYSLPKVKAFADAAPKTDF

Consider `CC12C(=O)OC(=O)C1C1CCC2O1` [(S)-(−)-palasonin], for which the “relative activity at 1 mM” value at GSTs2 [1] is reported as 0.51 fraction of control; on GSTd1 [2], 0.35 fraction of control; at GSTs1 [3], 0.26 fraction of control; on GSTd2 [4], 0.55 fraction of control.

Consider `O=[N+]([O-])c1ccc(Cl)c([N+](=O)[O-])c1` [1-chloro-2,4-dinitrobenzene], for which the Km was 469 µM at GSTs2 [5]; 1010 µM at GSTd3; 684 µM on GSTs1 [6]; 546 µM in the experiment with GSTd5; 1120 µM at GSTd4; 691 µM on GSTd1 [7]. The Km came out at 413 µM on GSTe4, 682 µM on GSTd2 [8] and 705 µM on GSTe5.
